# In patent US20110086862A1, “POLYMORPHS OF PARDOPRUNOX” (priority 2009, published 2011):
# Experiments:
# dopamine-D2 receptor = dopamine-D2 receptor (Homo sapiens, UniProt P14416); settings: cited from earlier work
# [1] = target: T1, serotonin 5-HT1A receptor (Homo sapiens, UniProt P08908); settings: cited from earlier work
# T1 sequence (P08908 1-422): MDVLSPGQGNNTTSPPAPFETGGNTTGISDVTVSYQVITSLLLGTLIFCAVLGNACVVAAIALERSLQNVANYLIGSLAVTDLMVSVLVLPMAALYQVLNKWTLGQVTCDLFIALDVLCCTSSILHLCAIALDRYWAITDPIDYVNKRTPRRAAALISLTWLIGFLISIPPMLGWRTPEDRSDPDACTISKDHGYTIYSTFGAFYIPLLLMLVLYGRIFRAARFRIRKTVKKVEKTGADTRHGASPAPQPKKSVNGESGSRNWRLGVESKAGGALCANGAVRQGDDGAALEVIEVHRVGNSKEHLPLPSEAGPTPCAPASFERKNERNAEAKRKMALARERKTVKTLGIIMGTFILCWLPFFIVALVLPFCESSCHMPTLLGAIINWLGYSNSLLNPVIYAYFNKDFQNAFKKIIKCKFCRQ
# [2] = Ageing experiments of α- and β-polymorphs (crystal modification by XRPD); assay type: physicochemical; settings: shaken one week
# Procedure: (§1) Relative stability of the α- and β-polymorphs of pardoprunox were determined by ageing and slurry experiments in six different solvents. The crystal modification of the solid material was determined using XRPD. For mixtures, amounts of α and β were determined using semi-quantitative calculations, based on the ratio of peak heights of specific reflections of the α- and β-polymorphs, respectively. A peak at 23.3° 2θwas used for α-polymorphs, and one at 15.3° 2θfor β-polymorphs. Due to effects of sample preparation, crystal orientation and differences in response factors, this estimation is semi-quantitative.
# (§2) For ageing experiments, two series of saturated solutions of a specific polymorphic (α or β) form were shaken at 375 rpm, for one week, in six different solvents, one series at ambient temperature (ca. 20° C.) and one at 50° C. 40 ml tubes were filled with 0.5 g of the appropriate polymorphic form, and 25 ml of solvent (or mixture). After a week the precipitate was filtered and dried at ambient temperature under reduced pressure.
# [3] = Slurry experiments of α- and β-polymorphs (crystal modification by XRPD); assay type: physicochemical; settings: for Crystal modifications by XRPD, slurry experiment: before/after seeding not distinguished; for Crystal modifications by XRPD, slurry experiment, after seeding: seeded with 15-20 mg of the other form, shaken 1 week; for Crystal modifications by XRPD, slurry experiment, before seeding: shaken 1 day
# Procedure: as §1
# (§3) For slurry experiments, two series of saturated solutions of a specific polymorphic (α or β) form were shaken at 375 rpm for one day in six different solvents, one series at ambient temperature and one at 50° C. 40 ml tubes were filled with 0.5 g of the appropriate polymorphic form, and 25 ml of solvent (or mixture). After 1 day about 2.5 ml of sample was taken from each tube, filtered and dried at ambient temperature under reduced pressure. Subsequently the crystal modification was determined. After the samples were taken each tube was seeded with 15-20 mg of the other polymorphic form. Then, all tubes were shaken for 1 week at 375 rpm at ambient temperature or at 50° C. Finally, the precipitate was filtered and dried at ambient temperature under reduced pressure and the crystal modification was determined.
# [4] = Stability tests: relative stability from ageing and slurry experiments; assay type: physicochemical; settings: for Relative stability of the polymorphs: at the applied experimental conditions (ageing and slurry), hydrochloride; for Conversion from β- to α-polymorph: ageing and slurry, ambient temperature and 50° C.
# Procedure: as §1, §2, §3
# [5] = toluene/methanol (10:3), 50° C.
# [6] = toluene/methanol (10:3), ambient
# Sequence of dopamine-D2 receptor (P14416 whole entry, species assumed): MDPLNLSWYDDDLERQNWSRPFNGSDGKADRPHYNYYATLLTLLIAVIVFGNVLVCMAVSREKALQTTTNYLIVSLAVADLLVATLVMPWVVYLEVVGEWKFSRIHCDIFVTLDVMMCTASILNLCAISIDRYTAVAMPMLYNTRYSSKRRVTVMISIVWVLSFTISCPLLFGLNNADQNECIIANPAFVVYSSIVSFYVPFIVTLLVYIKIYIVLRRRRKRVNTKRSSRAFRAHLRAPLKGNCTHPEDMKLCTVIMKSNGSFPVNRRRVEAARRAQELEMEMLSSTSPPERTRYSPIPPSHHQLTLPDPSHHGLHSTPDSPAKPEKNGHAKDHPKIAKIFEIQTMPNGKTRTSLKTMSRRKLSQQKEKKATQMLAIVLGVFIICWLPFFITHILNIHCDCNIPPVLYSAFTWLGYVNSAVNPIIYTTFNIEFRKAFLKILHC
smiles,measurement,setting,value
"CN1CCN(c2cccc3[nH]c(=O)oc23)CC1.Cl [pardoprunox, 7-(4-methyl-1-piperazinyl)benzoxazol-2(3H)-one mono-hydrochloride]",Functional activity at dopamine-D2 receptor,dopamine-D2 receptor,partial dopamine-D2 receptor agonist
same,Functional activity at serotonin 5-HT1A receptor,[1],full serotonin 5-HT1A receptor agonist
"CN1CCN(c2cccc3[nH]c(=O)oc23)CC1.Cl [α-polymorph, 7-[(4-methyl)-1-piperazinyl]-2(3H)-benzoxazolone hydrochloride]",Crystal modifications by XRPD after ageing,"[2]; 1,2-dimethoxy ethane, 50° C., hydrochloride",α
same,Crystal modifications by XRPD after ageing,"[2]; 1,2-dimethoxy ethane, ambient, hydrochloride",α
same,Crystal modifications by XRPD after ageing,"[2]; 96% ethanol, 50° C.",α
same,Crystal modifications by XRPD after ageing,"[2]; acetonitrile, 50° C., hydrochloride",α
same,Crystal modifications by XRPD after ageing,"[2]; acetonitrile, ambient, hydrochloride",α
same,Crystal modifications by XRPD after ageing,"[2]; ethyl acetate/isopropanol (2:1), 50° C., hydrochloride",α
same,Crystal modifications by XRPD after ageing,"[2]; ethyl acetate/isopropanol (2:1), ambient, hydrochloride",α
same,Crystal modifications by XRPD after ageing,"[2]; methyl ethyl ketone, 50° C., hydrochloride",α
same,Crystal modifications by XRPD after ageing,"[2]; methyl ethyl ketone, ambient, hydrochloride",α
same,Crystal modifications by XRPD after ageing,[2]; [5],α
same,Crystal modifications by XRPD after ageing,[2]; [6],α
same,"Crystal modifications by XRPD, slurry experiment","[3]; 1,2-dimethoxy ethane, 50° C.",α
same,"Crystal modifications by XRPD, slurry experiment","[3]; 1,2-dimethoxy ethane, ambient",α
same,"Crystal modifications by XRPD, slurry experiment","[3]; 96% ethanol, 50° C.",α
same,"Crystal modifications by XRPD, slurry experiment","[3]; acetonitrile, 50° C.",α
same,"Crystal modifications by XRPD, slurry experiment","[3]; acetonitrile, ambient",α
same,"Crystal modifications by XRPD, slurry experiment","[3]; ethyl acetate/isopropanol (2:1), 50° C.",α
same,"Crystal modifications by XRPD, slurry experiment","[3]; ethyl acetate/isopropanol (2:1), ambient",α
same,"Crystal modifications by XRPD, slurry experiment","[3]; methyl ethyl ketone, 50° C.",α
same,"Crystal modifications by XRPD, slurry experiment","[3]; methyl ethyl ketone, ambient",α
same,"Crystal modifications by XRPD, slurry experiment",[3]; [5],α
same,"Crystal modifications by XRPD, slurry experiment",[3]; [6],α
same,Conversion from α- to β-polymorph,"[4]; ageing and slurry experiments, all solvents","Neither in ageing nor in slurry experiments, was conversion from α- to β-polymorph observed"
same,Relative stability of the polymorphs,[4]; listed as a-polymorph,more stable than the β-polymorph
same,Relative stability of the polymorphs,[4]; listed as crystal modification a,more stable than crystal modification β
"CN1CCN(c2cccc3[nH]c(=O)oc23)CC1.Cl [β-polymorph, 7-[(4-methyl)-1-piperazinyl]-2(3H)-benzoxazolone hydrochloride]",Crystal modifications by XRPD after ageing,"[2]; 96% ethanol, 50° C.",α
same,Crystal modifications by XRPD after ageing,"[2]; 96% ethanol, ambient (ca. 20° C.), hydrochloride",α
same,Crystal modifications by XRPD after ageing,[2]; [5],α
same,Crystal modifications by XRPD after ageing,[2]; [6],α
same,"Crystal modifications by XRPD, slurry experiment, after seeding","[3]; 96% ethanol, 50° C.",α
same,"Crystal modifications by XRPD, slurry experiment, before seeding","[3]; 96% ethanol, 50° C.",α
same,"Crystal modifications by XRPD, slurry experiment, after seeding","[3]; 96% ethanol, ambient",α
same,"Crystal modifications by XRPD, slurry experiment, before seeding","[3]; 96% ethanol, ambient",α
same,"Crystal modifications by XRPD, slurry experiment, after seeding","[3]; acetonitrile, 50° C.",α
same,"Crystal modifications by XRPD, slurry experiment, after seeding",[3]; [5],α
same,"Crystal modifications by XRPD, slurry experiment, before seeding",[3]; [5],α
same,"Crystal modifications by XRPD, slurry experiment, after seeding",[3]; [6],α
same,Conversion from β- to α-polymorph,[4]; acetonitrile,substantial conversion
same,Conversion from β- to α-polymorph,[4]; ethanol and 10:3 toluene/methanol mixture,complete conversion
same,Conversion from β- to α-polymorph,[4]; other solvents,the conversion was minimal
